From publication PMC6017400, “Investigation into Improving the Aqueous Solubility of the Thieno[2,3-b]pyridine Anti-Proliferative Agents” (Molecules : A Journal of Synthetic Chemistry and Natural …, 2018)
pIC50: −log10 of the molar value. In brackets after ≈: the same amount, converted by molar mass. Several values for one entry are separate records, joined by “and”; a condition that tells them apart may be missing. Equal values may be shown once. Read-outs that look alike come from different tables or passages of the source.

Legend:
[1] = Aqueous thermodynamic solubility by HPLC; format: physicochemical; conditions: for solubility thermodynamic at 15 min / solubility at 15 min: thermodynamic from solid; for solubility thermodynamic at 15 min / Experimental S / solubility at 15 min: water; for solubility thermodynamic at 15 min: read-out: Experimental S
Description: The aqueous thermodynamic solubility of derivatives 1–7 were measured using a standard HPLC (High Performance Liquid Chromatography) procedure. Solubility is defined as the amount of substance that passes into solution in order to establish the equilibrium at constant temperature and pressure and, thus, produce a saturated solution. The water solubility (log S) and log P were calculated for comparison.
Intrinsic aqueous drug solubility was determined by forming a supersaturated solution of the drug compound in water. The suspension was sonicated for 15 min and centrifuged at 13,000 rpm for 6 min. After 15 min the supernatant was decanted and the total drug content solubilised was analysed using reverse phase HPLC. The solution was analysed using an Agilent 1260 Infinity/DAD (100–900 nm) (Waldbronn, Germany) with a Zorbax eclipse XDB ([…], 4.6 mm × 150 mm) (Waldbronn, Germany) column. The mobile phase comprised of 80:20 acetonitrile: H2O containing 45 mM ammonium formate buffered to pH 3.5 with formic acid. Flow rate was 1 mL/min with 5 μL injection volume.

[2] = Drug loading into Ch5 polymer (UV-VIS); format: physicochemical; conditions: 6 mg/mL, 10:1 feed ratio
Description: The maximum compound solubilisation observed was 6 mg/mL at a 10:1 ratio, with 0.59 mg/mL drug encapsulation being achieved.
Polymer solutions of 1 mg/mL, 3 mg/mL, and 6 mg/mL were made up in deionised water and probe sonicated for 10 min to ensure aggregation of the self-assemblies was achieved. Compound 2 was added in 1:1, 5:1, and 10:1 initial drug: excipient weight ratios and the drug-polymer solutions were probe sonicated for a further 10 min to ensure maximum encapsulation was achieved. After cooling to room temperature, the solutions were filtered using 0.45 µm syringe filters (with prefilters) to ensure any excess un-encapsulated drugs were removed. Drug quantification was carried out using UV-VIS spectroscopy with the samples diluted in DMSO. Absorbance was measured at 304 nm. Calibration was run from 0.0039–0.0313 mg/mL with R^2 = 0.992 (see Supplementary Materials Figure S3 for the calibration plot).

[3] = test system: MDA-MB-231 (breast) human tumour cell line; design: method as in PMID 26966420; conditions: read-out: IC50, thymidine uptake assay; cited from earlier work
[4] = In vitro drug release from polymer into PBS; format: physicochemical; conditions: 37 °C
Description: The formulation (1 mL) was pipetted inside dialysis tubing (MW cut off = 12–14 kDa) and dialysed against PBS in sink (100 mL, 0.2 M) at 37 °C with stirring. At various time points 1 mL of the external PBS was extracted and replaced with 1 mL of fresh PBS. The presence of drug in the collected PBS was determined using UV-VIS spectroscopy as before.

HCT116 = test system: HCT116; design: method as in PMID 22698703, doi:10.1039/c3md00320e, PMID 26966420; conditions: cited from earlier work
[5] = test system: human pancreatic adenocarcinoma (BxPC-3) cells; assay: MTT cytotoxicity assay; format: cell-based
Description: Finally the viability was measured with the MTT assay in human pancreatic adenocarcinoma (BxPC-3) cells using 2 with and without the polymer encapsulation; the results are shown in Figure 6.
An MTT assay was carried out using human pancreatic adenocarcinoma (BxPC-3) cells. Cells were cultured in RPMI medium containing 10% FBS and 1% penicillin streptomycin (Penstrep). […] The experiments were performed in triplicate (n = 3) using eight wells per plate for each data point. […] Polymeric self-assemblies were formed by probe sonicating the polymers in sterile water (5 mg/mL). The polymer stock solutions were diluted to 0.005 mg/mL with media. A drug stock solution (20 mg/mL) was prepared by diluting compound 2 in DMSO. The formulations were prepared by addition of compound 2 into 0.005 mg/mL polymer solution.

MDA-MB-231 = test system: MDA-MB-231; design: method as in PMID 22698703, doi:10.1039/c3md00320e, PMID 26966420; conditions: cited from earlier work
[6] = test system: MDA-MB-231 (breast) human tumour cell line; assay: Thymidine uptake cell proliferation assay; format: cell-based; conditions: 1 μM, untreated cells = 100% growth
Description: (§1) Thymidine uptake was used for viability testing on the MDA-MB-231 (breast) and HCT116 (colon) human tumour cell lines. This measurement reflects the anti-proliferative/cytotoxic effects of the compounds. A concentration of 1 μM was used. […] To corroborate these findings, derivatives 3, 4, and 6 were tested against the National Cancer Institute’s human tumour cell line panel (NCI60). […] The leukaemia cell lines K-562 (45.5% growth) and SR (47.7% growth) were the most affected followed by the melanoma MDA-MB-435 (53.9% growth) cell line. This is an interesting observation since the thieno[2,3-b]pyridines are often active against leukaemia cells and the MDA-MB-435 cell line, in particular.
(§2) As described in detail previously cell proliferation was measured using a thymidine incorporation assay by seeding 3000 cells in each well using 96-well plates with varying concentrations of inhibitors for three days. Experiments were performed in triplicate with a minimum of two experimental repeats. Briefly, 0.04 µCi of ^3H-thymidine was added to each well and incubated for five hours, after which the cells were gathered onto glass fibre filters using an automated TomTec harvester. Filters were incubated with Betaplate Scint and thymidine incorporation determined with Trilux/Betaplate counter showing the percentage of cells incorporated with ^3H-thymidine into the DNA helix.

[7] = test system: HCT116 (colon) human tumour cell line; assay: Thymidine uptake cell proliferation assay; format: cell-based; conditions: 1 μM, untreated cells = 100% growth
Description: as §1, §2

[8] = test system: NCI60 human tumour cell line panel; assay: NCI60 human tumour cell line panel growth inhibition (SRB); format: cell-based
Description: as §1
(§3) Furthermore, derivatives 3, 4, and 6 were sent to the National Cancer Institute’s Developmental Therapeutic Program (DTP) where they were screened against a panel of sixty human tumour cell lines (NCI60, for further information see [18, 29, 30] and a complete description in the Supplementary Materials section).
(§4) Figure S3. Compound 2 UV-vis calibration in DMSO at 304 nm.
(§5) NCI's 60-cell line panel growth inhibition assay
The NCI's human 60-cell lines were grown in RPMI 1640 medium containing 5% FBS and 2mM L-glutamine. Cells were inoculated into 96-well plates at plating densities 5000–40 000 cells per well, based on the doubling time of individual cell lines. Plates were then incubated at 37 °C, 5% CO2, 95% air and 100% relative humidity for 24 h prior to addition of tested compounds. After 24 h, two plates of each cell line were fixed in situ with trichloroacetic acid (TCA), to represent a measurement of the cell population for each cell line at the time of tested compound addition. Tested compounds were solubilized in DMSO at a concentration 400 times that of the desired final maximum test concentration and stored frozen prior to use. An aliquot of each frozen tested concentrate was thawed and diluted to twice the desired final maximum test concentration with complete medium containing 50 μg mL-1 gentamicin. 100 μL aliquot of the tested drug diluted solution was added to appropriate wells containing 100 μL of medium, resulting in the required final drug doses. Following tested compound addition, plates were incubated for additional 48 h. The assay was terminated by the addition of cold TCA for adherent cells. Cells were fixed in situ by addition of 50 μL of cold 50% (w/v) TCA (final concentration, 10% TCA) and incubated for 60 min at 4 °C. The supernatant was discarded, and plates were washed 5 times with water and air dried. Sulforhodamine B (SRB) solution (100 μL), 0.4%(w/v) in 1% acetic acid was added to each well, and plates were incubated for 10 min at rt. […] The bound stain was subsequently solubilized with 10 mM Trizma base, and the absorbance was measured on a plate reader at 515 nm. […]

[9] = test system: melanoma MDA-MB-435 cell line; assay: NCI60 panel growth inhibition (SRB); format: cell-based, human; conditions: MDA-MB-435, NCI60
Description: as §1, §3, §4, §5
(§6) The NCI's human 60-cell lines were grown in RPMI 1640 medium containing 5% FBS and 2mM L-glutamine. Cells were inoculated into 96-well plates at plating densities 5000–40 000 cells per well, based on the doubling time of individual cell lines. Plates were then incubated at 37 °C, 5% CO2, 95% air and 100% relative humidity for 24 h prior to addition of tested compounds. After 24 h, two plates of each cell line were fixed in situ with trichloroacetic acid (TCA), to represent a measurement of the cell population for each cell line at the time of tested compound addition. Tested compounds were solubilized in DMSO at a concentration 400 times that of the desired final maximum test concentration and stored frozen prior to use. […] The bound stain was subsequently solubilized with 10 mM Trizma base, and the absorbance was measured on a plate reader at 515 nm. […]

[10] = test system: leukaemia cell line K-562; assay: NCI60 panel growth inhibition (SRB); format: cell-based, human; conditions: K-562, NCI60
Description: as §1, §3, §4, §5, §6

leukaemia cell line SR = assay: NCI60 panel growth inhibition (SRB); format: cell-based, human
Description: as §1, §3, §4, §5, §6

[11] = HPLC, read-out: Experimental S, log S (converted)

solubility thermodynamic at 15 min ([1]; HPLC) [µg/mL] | solubility at 15 min [1, 11] [µM] | Structure (SMILES) | average relative growth, thymidine assay [6] [%] | average relative growth, thymidine assay [7] [%] | activity against NCI60 panel [8] | other results
1.21 (≈ 3.59 µM) | 3.98 | Nc1c(C(=O)Nc2ccccc2)sc2nc3c(cc12)C(=O)CCC3 [Compound 1, 3-amino-5-oxo-N-phenyl-5,6,7,8-tetrahydrothieno[2,3-b]quinoline-2-carboxamide] | – | – | – | Experimental S ([1]; HPLC): 1.2 µg/mL
3.53 (≈ 9.15 µM) | 10 | Cc1c(Cl)cccc1NC(=O)c1sc2nc3c(cc2c1N)C(=O)CCC3 [Compound 2] | – | – | – | drug encapsulation (maximum) in Ch5 polymer [2]: 0.59 mg/mL; pIC50 [3]: 6.79; time to plateau of release from the polymer ensemble into the aqueous phase [4]: ~ 40 min; GI50 (HCT116): 67 nM; IC50 ([5]; BXPC-3, 24 h exposure, read-out: IC50, BxPC-3 viability (MTT)): 2.5 µg/mL and 6.48 µM; viability at 12.95 µM ([5]; BxPC-3, 5 μg/mL (12.95 μM), read-out: cell viability (activity remaining)): ~30%; GI50 (MDA-MB-231): 141 nM
– | 3160 | Nc1c(C(=O)Nc2ccccc2)n(CCCN2CCOCC2)c2nc3c(cc12)CCCC3 [Compound 3] | 99.5 | 90.3 | very modest or no activity | solubility increase as compared to 1 [1]: three orders of a magnitude; water solubility [1]: 1300 µg/mL (≈ 3000 µM); Experimental S ([1]; HPLC): 1339.8 µg/mL and 1336.7 µg/mL; solubility at 15 min ([1]; read-out: water solubility): ~1300 µg/mL
0.2 (≈ 0.471 µM) | 0.501 | Nc1c(C(=O)Nc2ccccc2)n(CCCc2ccccc2)c2nc3c(cc12)CCCC3 [Compound 4] | 105.4 | 103.6 | very modest or no activity | –
0.18 (≈ 0.486 µM) | 0.501 | Cn1c(C(=O)Nc2cccc3ccccc23)c(N)c2cc3c(nc21)CCCC3 [Compound 5] | 97.2 | 102.1 | – | –
0.76 (≈ 2.18 µM) | 2 | Cc1cccc(NC(=O)c2c(N)c3cc4c(nc3n2C)CCCC4)c1C [Compound 6] | 106.0 | 104.2 | very modest or no activity | growth [9]: 53.9%; growth [10]: 45.5%; growth (leukaemia cell line SR): 47.7%; overall relative growth for the 60 cell lines ([8]; untreated cells = 100% growth): 77%
0.61 (≈ 1.75 µM) | 1.58 | Cn1c(C(=O)Nc2ccccc2)c(N)c2cc3c(nc21)CCCCCC3 [Compound 7] | 100.7 | 99.0 | – | –
